Each block holds one molecule with its values, some of them ahead of it.
Assays:
[1] = system: ORYZA; assay: Post-emergence effects on crop plants (Table F3); assay type: in vivo, Oryza sativa; conditions: application rate 320 g/ha, crop plant ORYZA
From the text: (§1) 2 to 3 weeks after sowing, the test plants were sprayed in the single-leaf stage.

[2] = system: ECHCG; assay: Herbicidal pre-emergence action, section C (Table C6); assay type: in vivo, Echinochloa crus-galli; conditions: application rate 320 g/ha; visual grading after ca. 3 weeks
[3] = system: ZEAMX; assay: Pre-emergence effects on crop plants (Table D1); assay type: in vivo, Zea mays; conditions: crop plant; application rate 80 g/ha; visual grading after ca. 3 weeks
[4] = system: VIOTR; assay: Herbicidal pre-emergence action, section C (Table C12); assay type: in vivo, Viola tricolor; conditions: application rate 320 g/ha; visual grading after ca. 3 weeks
[5] = system: ZEAMX; assay: Post-emergence effects on crop plants (Table F1); assay type: in vivo, Zea mays; conditions: application rate 320 g/ha, crop plant ZEAMX
From the text: as §1

[6] = system: ECHCG; assay: Herbicidal pre-emergence action (Table A2); assay type: in vivo, Echinochloa crus-galli; conditions: visual grading after ca. 3 weeks
Outline: (§2)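 Seeds of monocot and dicot weeds were sown in pots of sandy loam and covered with soil. Each pot held a double sowing: one monocotyledonous plus one dicotyledonous species.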

[7] = system: BRSNW; assay: Pre-emergence effects on crop plants (Table D5); assay type: in vivo, Brassica napus; conditions: crop plant; application rate 320 g/ha; visual grading after ca. 3 weeks
[8] = system: SETVI; assay: Herbicidal pre-emergence action (Table A5); assay type: in vivo, Setaria viridis; conditions: visual grading after ca. 3 weeks
Outline: as §2

[9] = system: TRZAS; assay: Post-emergence effects on crop plants (Table F2); assay type: in vivo, Triticum aestivum; conditions: application rate 320 g/ha, crop plant TRZAS
From the text: as §1

[10] = system: AMARE; assay: Herbicidal pre-emergence action, section C (Table C3); assay type: in vivo, Amaranthus retroflexus; conditions: application rate 320 g/ha; visual grading after ca. 3 weeks
[11] = system: TRZAS; assay: Pre-emergence effects on crop plants (Table D2); assay type: in vivo, Triticum aestivum; conditions: crop plant; application rate 80 g/ha; visual grading after ca. 3 weeks
[12] = system: LOLRI; assay: Herbicidal pre-emergence action (Table A3); assay type: in vivo, Lolium rigidum; conditions: visual grading after ca. 3 weeks
Outline: as §2

[13] = system: ECHCG; assay: Herbicidal post-emergence action (Table B3); assay type: in vivo, Echinochloa crus-galli; conditions: rated visually after about 3 weeks
Outline: (§3)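 Greenhouse post-emergence screen on potted weeds in sandy loam, treatment at one-leaf stage, visual % control scored ~3 weeks later against untreated plants.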

[14] = system: VERPE; assay: Herbicidal post-emergence action (Table B10); assay type: in vivo, Veronica persica
Outline: as §3

[15] = system: BRSNW; assay: Post-emergence effects on crop plants (Table F5); assay type: in vivo, Brassica napus; conditions: application rate 320 g/ha, crop plant BRSNW
From the text: as §1

[16] = system: SETVI; assay: Herbicidal pre-emergence action, section C (Table C10); assay type: in vivo, Setaria viridis; conditions: application rate 80 g/ha; visual grading after ca. 3 weeks
[17] = system: POAAN; assay: Herbicidal post-emergence action (Table B7); assay type: in vivo, Poa annua
Outline: as §3

[18] = system: GLXMA; assay: Pre-emergence effects on crop plants (Table D4); assay type: in vivo, Glycine max; conditions: crop plant; application rate 80 g/ha; visual grading after ca. 3 weeks
[19] = system: ECHCG; assay: Herbicidal post-emergence action, section E (Table E5); assay type: in vivo, Echinochloa crus-galli; conditions: application rate 320 g/ha; assessed visually after ca. 3 weeks
From the text: as §1

[20] = system: ALOMY; assay: Herbicidal pre-emergence action, section C (Table C2); assay type: in vivo, Alopecurus myosuroides; conditions: application rate 320 g/ha; visual grading after ca. 3 weeks
From the text: Seeds of mono- and dicotyledonous weed plants and crop plants were sown, in plastic or organic planting pots, in sandy loam and covered with soil. The compounds according to the invention, formulated in the form of wettable powders (WP) or as emulsifiable concentrates (EC), were applied to the surface of the covering soil as aqueous suspension or emulsion, with the addition of 0.5% of an additive, at an application rate of 600 1 of water/ha (converted). Following treatment, the pots were placed in a greenhouse and kept under optimum growth conditions for the test plants.

[21] = system: DIGSA; assay: Herbicidal pre-emergence action, section C (Table C5); assay type: in vivo, Digitaria sanguinalis; conditions: application rate 320 g/ha; visual grading after ca. 3 weeks
[22] = system: VERPE; assay: Herbicidal pre-emergence action (Table A11); assay type: in vivo, Veronica persica; conditions: application rate 1280 g/ha; visual grading after ca. 3 weeks
Outline: as §2

[23] = system: KCHSC; assay: Herbicidal post-emergence action (Table B4); assay type: in vivo, Kochia scoparia; conditions: application rate 1280 g/ha; rated visually after about 3 weeks
Protocol: (§4) Seeds of mono- and dicotyledonous weed plants were placed in plastic pots in sandy loam soil (doubly sown with in each case one species of mono- or dicotyledonous weed plants per pot), covered with soil and cultivated in a greenhouse under controlled growth conditions. 2 to 3 weeks after sowing, the test plants were treated at the one-leaf stage. […] After the test plants had been kept in the greenhouse under optimum growth conditions for about 3 weeks, the activity of the preparations was rated visually in comparison to untreated controls. For example, 100% activity = the plants have died, 0% activity = like control plants.

[24] = system: ABUTH; assay: Herbicidal pre-emergence action (Table A1); assay type: in vivo, Abutilon theophrasti; conditions: application rate 1280 g/ha; visual grading after ca. 3 weeks vs untreated controls (100% = plants have died off, 0% = as control plants)
Outline: as §2

[25] = system: POAAN; assay: Herbicidal pre-emergence action (Table A7); assay type: in vivo, Poa annua; conditions: Poa annua, pre-emergence, 504 h; application rate 320 g/ha; visual grading after ca. 3 weeks; read-out: pre-emergence activity against POAAN
Outline: as §2

[26] = system: DIGSA; assay: Herbicidal post-emergence action (Table B12); assay type: in vivo, Digitaria sanguinalis; conditions: application rate 320 g/ha
Protocol: as §4

[27] = system: ABUTH; assay: Herbicidal post-emergence action (Table B1); assay type: in vivo, Abutilon theophrasti; conditions: application rate 320 g/ha; treated at one-leaf stage; rated visually after about 3 weeks vs untreated controls (100% = plants have died, 0% = like control plants)
Outline: as §3

[28] = system: AMARE; assay: Herbicidal post-emergence action (Table B11); assay type: in vivo, Amaranthus retroflexus; conditions: application rate 1280 g/ha
Outline: as §3

[29] = system: STEME; assay: Herbicidal post-emergence action (Table B9); assay type: in vivo, Stellaria media; conditions: application rate 320 g/ha
Protocol: as §4

[30] = system: MATIN; assay: Herbicidal pre-emergence action (Table A4); assay type: in vivo, Matricaria inodora; conditions: application rate 1280 g/ha; visual grading after ca. 3 weeks
Outline: as §2

[31] = system: LOLRI; assay: Herbicidal post-emergence action (Table B5); assay type: in vivo, Lolium rigidum; conditions: application rate 320 g/ha; rated visually after about 3 weeks
Protocol: as §4

[32] = system: STEME; assay: Herbicidal pre-emergence action (Table A6); assay type: in vivo, Stellaria media; conditions: application rate 320 g/ha; visual grading after ca. 3 weeks
Outline: as §2

[33] = system: KCHSC; assay: Herbicidal pre-emergence action (Table A10); assay type: in vivo, Kochia scoparia; conditions: application rate 320 g/ha; visual grading after ca. 3 weeks
Outline: as §2

[34] = system: ALOMY; assay: Herbicidal post-emergence action (Table B2); assay type: in vivo, Alopecurus myosuroides; conditions: application rate 1280 g/ha; rated visually after about 3 weeks
Outline: as §3

[35] = system: AMARE; assay: Herbicidal pre-emergence action (Table A8); assay type: in vivo, Amaranthus retroflexus; conditions: application rate 320 g/ha; visual grading after ca. 3 weeks vs untreated controls (100% = plants have died off, 0% = as control plants)
Outline: as §2

[36] = system: SETVI; assay: Herbicidal post-emergence action (Table B8); assay type: in vivo, Setaria viridis; conditions: application rate 320 g/ha
Outline: as §3

[37] = system: DIGSA; assay: Herbicidal pre-emergence action (Table A12); assay type: in vivo, Digitaria sanguinalis; conditions: application rate 320 g/ha; visual grading after ca. 3 weeks
Outline: as §2

pre-emergence activity against ZEAMX [3]: 10%
pre-emergence activity against BRSNW [7]: 0%
pre-emergence activity against TRZAS [11]: 0%
pre-emergence activity against GLXMA [18]: 0%
SMILES: O=C1N(Cc2ccccc2)CCCC12CCCN(Cc1ccccc1Cl)C2=O (racemic) [I-066]
post-emergence activity against ORYZA [1]: 0%
pre-emergence activity against ECHCG [2]: 80%
pre-emergence activity against VIOTR [4]: 80%
post-emergence activity against ZEAMX [5]: 0%
pre-emergence activity against ECHCG ([6]; application rate 320 g/ha): 100%
pre-emergence activity against SETVI ([8]; application rate 1280 g/ha): 100%
post-emergence activity against TRZAS [9]: 0%
pre-emergence activity against AMARE [10]: 90%
pre-emergence activity against LOLRI ([12]; application rate 320 g/ha): 100%
post-emergence activity against ECHCG ([13]; application rate 1280 g/ha): 90%
post-emergence activity against VERPE ([14]; application rate 1280 g/ha): 90%
post-emergence activity against BRSNW [15]: 0%
pre-emergence activity against SETVI [16]: 100%
post-emergence activity against POAAN ([17]; application rate 1280 g/ha): 90%
post-emergence activity against ECHCG [19]: 80%
pre-emergence activity against ALOMY [20]: 90%

SMILES: O=C1N(Cc2cc(F)c(F)cc2F)CCCC12CCCN(Cc1cc(F)c(F)cc1F)C2=O (racemic) [I-213, 2,8-bis[(2,4,5-trifluorophenyl)methyl]-2,8-diazaspiro[5.5]undecane-1,7-dione]
pre-emergence activity against DIGSA [21]: 80%
pre-emergence activity against ECHCG [2]: 100%
pre-emergence activity against AMARE [10]: 90%
pre-emergence activity against ALOMY [20]: 90%

SMILES: O=C1N(Cc2cnc(Br)s2)CCCC12CCCN(Cc1cnc(Br)s1)C2=O (single isomer, unassigned; (+)) [I-205, (+)-2,8-bis[(2-bromo-1,3-thiazol-5-yl)methyl]-2,8-diazaspiro[5.5]undecane-1,7-dione]
pre-emergence activity against VERPE [22]: 100%
post-emergence activity against KCHSC [23]: 90%
pre-emergence activity against ABUTH [24]: 90%
pest or weed control at 320 g/ha [25]: 100%
post-emergence activity against DIGSA [26]: 90%
post-emergence activity against ABUTH [27]: 90%
post-emergence activity against AMARE [28]: 90%
pre-emergence activity against ECHCG ([6]; application rate 1280 g/ha): 90%
post-emergence activity against STEME [29]: 90%
pre-emergence activity against MATIN [30]: 90%
pre-emergence activity against SETVI ([8]; application rate 320 g/ha): 100%
post-emergence activity against LOLRI [31]: 90%
pre-emergence activity against STEME [32]: 90%
pre-emergence activity against KCHSC [33]: 100%
post-emergence activity against ALOMY [34]: 90%
pest or weed control at 1280 g/ha ([12]; Lolium rigidum, pre-emergence, 504 h, application rate 1280 g/ha, read-out: pre-emergence activity against LOLRI): 100%
pre-emergence activity against AMARE [35]: 90%
post-emergence activity against SETVI [36]: 90%
pest or weed control at 320 g/ha ([13]; Echinochloa crus-galli, post-emergence, 504 h, application rate 320 g/ha, read-out: post-emergence activity against ECHCG): 90%
post-emergence activity against VERPE ([14]; application rate 320 g/ha): 90%
pre-emergence activity against DIGSA [37]: 90%
post-emergence activity against POAAN ([17]; application rate 320 g/ha): 90%
